Data on seven compounds can be found in patent US20260327264A1, “PEPTIDE INHIBITORS OF INTERLEUKIN-23 RECEPTOR” (Zealand Pharma A/S, priority 2023, published 2026).

Read-outs that look alike come from different tables or passages of the source. *1 amine or outer side, *2 acyl side, *3 side chain or, on linkers, in order; H or OH if unused. Where a SMILES comes first, the peptide text is derived from it. Bridges are numbered along the chain shown (N, C = ends). [ ]: non-standard residue; d: D form. 2Nal = N[C@@H](Cc1ccc2ccccc2c1)C(=O)O; AEF = NCCOc1ccc(C[C@H](N)C(=O)O)cc1; X1 = O=C(Cc1ccc(CN[*:1])cc1)[*:2]; 3Pal = N[C@@H](Cc1cccnc1)C(=O)O; αMeL = CC(C)C[C@](C)(N)C(=O)O; Dab = NCC[C@H](N)C(=O)O

The nature of data set [1]: Peptide stability in simulated gastric fluid (SGF). To be noted: pig, pH 1.2, pepsin, 37° C. In kind it is in vitro ADME. How it is done: (§1) SGF and SIF were prepared based on the United States Pharmacopeia specifications (Test Solutions, United States Pharmacopeia 35, NF 30, 2012). SGF was prepared by dissolving sodium chloride (0.2 g) in 50 mL of water. A volume of 0.7 mL of 10 M HCl was added to adjust the pH of the solution to 1.2 and the volume made up to 100 mL with water. 64 mg porcine pepsin (P7125, Sigma Aldrich) was gently dissolved into 20 mL preheated (37° C.) solution (3.2 g/L) immediately prior to the incubation. SIF was prepared by dissolving monobasic potassium phosphate (0.68 g) in 50 mL of water and adjusting the pH to 6.8 with 1 M NaOH. The volume was subsequently made up to 100 mL with water. 200 mg porcine pancreatin (P1625, Sigma Aldrich) was gently dissolved into 20 mL preheated (37° C.) solution (10 g/L) immediately prior to the incubation.
(§2) To initiate the incubations, 20 μL of peptide stock solution in 50% v/v isopropanol was deposited at the bottom of a well plate and 580 μL matrix solution was added to give a final substrate concentration of 10 μM. The incubation was performed at 37° C. with gentle shaking. 70 μL aliquots were removed at 0, 1 and 4 hours and quenched into 210 μL ice-cold precipitant solution (95% v/v acetonitrile with 0.1% v/v formic acid). After the last timepoint, the sampling plate was mixed for 10 min on a shaking table and centrifuged 10 min at 2200 g. 70 μL resulting supernatant was diluted with 150 μL water, mixed and centrifugated before analysis by liquid chromatography high resolution mass spectrometry. The zero sample was reinjected after the 4-hour sample to confirm that no drift in instrument sensitivity had occurred during the run. Percent remaining at each timepoint was calculated relative to timepoint zero based on absolute peak areas.
Compounds with a SGF stability (after 4 h) above 70% are considered highly SGF stable. Compounds with a SGF stability (after 4 h) between 30-70% (including 30% and 70%) are considered moderately SGF stable. Compounds with a SGF stability (after 4 h) below 30% are considered SGF unstable. SGF stability values above 100% are due to assay uncertainty and indicate the compound has not degraded.

Data set [2] in a line: Peptide stability in simulated intestinal fluid (SIF). The class given is in vitro ADME. To be noted: simulated intestinal fluid; for remaining at 1 h, 10 µM / remaining at 4 h, 10 µM: pig, SIF, pH 6.8, pancreatin, 37° C.; for remaining at 4 h, 10 µM: read-out: SIF (% remaining 4 h). How it is done:
as §1, §2
Compounds with a SIF stability (after 4 h) above 70% are considered highly SIF stable. Compounds with a SIF stability (after 4 h) between 30-70% (including 30% and 70%) are considered moderately SIF stable. Compounds with a SIF stability (after 4 h) below 30% are considered SIF unstable. SIF stability values above 100% are due to assay uncertainty and indicate the compound has not degraded.

Data set [3] relates to IL-23 mediated STAT3 signalling (DB cells). Put plainly: Functional inhibition of IL-23 mediated STAT3 signalling (phospho-STAT3 Tyr705) in DB cells. The class given is cell-based, human. To be noted: for hIL-23 (pSTAT3) antagonist % inhibition: Table 3-2, maximal inhibitory response, EC80 of hIL-23. Put shortly:
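Phospho-STAT3 in lysed DB cells quantified by MSD kit after 90 min exposure to EC80 human IL-23, following 15 min compound pretreatment (37° C, 5% CO2). IC50 and maximal inhibition derived from curves normalized between IL-23-only and buffer-only controls.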

The next data set has as its target T1, human IL-23R (Homo sapiens, UniProt Q5VWK5).
T1 construct: Nanoluc luciferase (Nluc); secretion signal encoded by the plasmid (not specified); expressed in transfected cells; crude membranes used in the assay
T1 sequence (Q5VWK5 22-629): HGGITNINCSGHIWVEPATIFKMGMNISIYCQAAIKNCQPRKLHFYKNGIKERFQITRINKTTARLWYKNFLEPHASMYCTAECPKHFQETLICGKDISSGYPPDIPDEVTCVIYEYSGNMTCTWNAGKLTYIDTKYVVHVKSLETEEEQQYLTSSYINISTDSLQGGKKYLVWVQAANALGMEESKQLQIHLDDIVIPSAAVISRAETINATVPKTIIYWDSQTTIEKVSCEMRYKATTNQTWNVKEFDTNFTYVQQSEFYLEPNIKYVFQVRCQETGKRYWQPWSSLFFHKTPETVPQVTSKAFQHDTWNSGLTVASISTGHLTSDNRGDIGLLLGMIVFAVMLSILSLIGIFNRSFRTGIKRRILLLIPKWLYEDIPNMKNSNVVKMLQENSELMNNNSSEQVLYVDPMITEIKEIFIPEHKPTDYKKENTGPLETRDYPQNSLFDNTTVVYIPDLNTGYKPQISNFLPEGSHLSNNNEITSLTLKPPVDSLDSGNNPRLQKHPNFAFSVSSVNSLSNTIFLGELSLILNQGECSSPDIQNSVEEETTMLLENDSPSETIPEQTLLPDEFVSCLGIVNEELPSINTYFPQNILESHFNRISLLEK
Kind of data set: Binding assay: displacement of fluorophore (TAMRA)-labelled reference compound from human IL-23R (BRET, Nluc-IL23R fusion protein membranes). Conditions: for Emax: read-out: % displacement (hIL-23R binding).

Setting [4] is: Table 3-2, EC80 of hIL-23, read-out: hIL-23 (pSTAT3) antagonist IC50.

Description for human IL-23R: The assay principle relies on Bioluminescence Resonance Energy Transfer (BRET) between a fluorophore-labelled reference compound binding to the IL-23R part of a fusion protein consisting of the IL-23R fused to a Nanoluc luciferase enzyme (Nanoluc). The Nanoluc is placed in the N-terminus in close proximity to the binding domain of the ligand. Upon close proximity between the fluorophore of the fluorophore-labelled compound and the Nanoluc of the fusion protein, bioluminescence energy generated from conversion of a Nanoluc substrate, is transferred to the fluorophore resulting in an increase in BRET. In presence of an unlabelled compound, the unlabelled compound displaces the fluorophore-labelled peptide from its binding site resulting in a decrease in BRET. The concentration for which half of the fluorophore-labelled peptide is displaced by the unlabelled compound depends on the affinity of the compound for the IL-23R, and is termed the IC50 concentration.
The plasmid also contained a gene to confer resistance for the antibiotic hygromycin. A cell line stably expressing the Nluc-IL23R fusion protein was generated by transfection of HEK293 cells with the expression plasmid and selected with hygromycin for 3 weeks in Growth medium consisting of DMEM w/Glutamax-I containing, 10% V/V FBS, 1% V/V P/S, 1 mM Sodium Pyruvate, and 1× NEAA, and 0.3 mg/mL hygromycin. The remaining cells were propagated and considered a stable expressing Nluc-IL23R fusion protein pool clone.
Cells expressing the Nluc-IL23R fusion protein were expanded in Growth medium and membranes prepared by homogenization of a cell pellet from 18 T175 flasks (4° C. in subsequent steps). The cell pellet was lysed Tris 10 mM, 7.5, 1 mM EDTA and protease inhibitors (Complete, Roche) and homogenized using a 15 mL glass-dounce by 50 strokes. The homogenate was spun at spin @1500 rpm for 10 min, the supernatant transferred to SV-34 tubes and spun at 40000 g for 20 min at 4° C. to pellet the crude membranes. The supernatant was then removed, the pellet resuspended in 5 mL buffer containing 50 mM HEPES pH 7.4, 5 mM EGTA, and 5 mM MgCl2, and homogenized. Aliquots of the resuspended and homogenized membranes containing the Nluc-IL23R fusion protein were stored at −80° C. until use.
The plate was sealed with light impermeable plate seals, and incubated on an orbital shaker 400 rpm for 2 hours at room temperature. To determine the BRET ratio, the plate seal was removed and 25 μL of the Nanoluc substrate (Promega N1572) diluted 1:500 was added to each well and incubated for 1-2 minutes on an orbital shaker at 400 rpm. […] The BRET ratio was calculated as the fluorescence from the TAMRA/nanoluc bioluminescence.
Compound potency (IC50) and maximal displacement (% displacement) were estimated by computer-aided curve fitting using a 4-parameter logistic (4PL) non-linear model. The IC50 and maximal for each compound was determined by computer-aided curve fitting using a 4-parameter logistic (4PL) non-linear model.

For `CC(C)C[C@@H]1NC(=O)[C@H](Cc2c[nH]c3ccccc23)NC(=O)[C@H](Cc2c[nH]c3ccccc23)NC(=O)[C@@H]2CSCC(=O)CSC[C@H](NC(=O)[C@H](CO)NC(=O)[C@@H](NC(=O)[C@@H](N)CC(=O)O)CSCC(=O)CSC[C@@H](C(=O)N[C@@H](CCCNC(=N)N)C(N)=O)NC1=O)C(=O)N[C@@H](Cc1c[nH]c3ccccc13)C(=O)N[C@@H](CCC(N)=O)C(=O)N2` (single isomer, unassigned) [I3 (isomer 3), H-DC(1a)SC(2a)WQC(2a)WWLC(1a)R-[NH2], reference compound], in data set [1], the share remaining at 1 h, 10 µM was 5% and the fraction remaining at 4 h, 10 µM was 0%. Moreover, in data set [2], the fraction remaining at 1 h, 10 µM was 0% and the share remaining at 4 h, 10 µM is 0%.
Consider `CC(C)C[C@]1(C)NC(=O)[C@H](Cc2ccc3ccccc3c2)NC(=O)[C@H](Cc2ccc(OCCN)cc2)NC(=O)[C@@H]2CCNC(=O)CC[C@H](NC(=O)[C@H](CO)NC(=O)Cc3ccc(cc3)CNC(=O)CC[C@@H](C(=O)N[C@@H](CCN)C(=O)N[C@H](Cc3cccnc3)C(N)=O)NC1=O)C(=O)N[C@@H](Cc1c[nH]c3ccccc13)C(=O)N[C@@H](CCC(N)=O)C(=O)N2` [Compound 5, [4-Aminomethyl-phenylacetyl](1c)*SE(2c)WQ[Dab](2c)[Y(2-aminoethoxy)][2-Nal][2-Me-Leu]E(1c)[Dab][{d}3-(3-Pyridyl)-Ala]-[NH2]], for which, in data set [1], the amount remaining at 4 h, 10 µM was 105%. The half-maximal inhibitory concentration (IC50) (commonly the point on the concentration scale where inhibition reaches its midpoint) came to 2.1 nM in data set [3] (EC80 of hIL-23, read-out: IC50 (pSTAT3)) and 2.1 nM in data set [3] (setting [4]). Besides, the “hIL-23 (pSTAT3) antagonist % inhibition” value in data set [3] came out at 95%. In addition, the fraction remaining at 1 h, 10 µM in data set [2] was 91%.
`CNC(=O)[C@H](Cc1cccnc1)NC(=O)[C@H](CCN)NC(=O)[C@@H]1CCC(=O)NCc2ccc(cc2)CC(=O)N[C@@H](Cc2ccccc2)C(=O)N[C@H]2CCC(=O)NCC[C@H](NC(=O)[C@H](CCC(N)=O)NC(=O)[C@H](Cc3c[nH]c4ccccc34)NC2=O)C(=O)N[C@@H](Cc2ccc(OCCN)cc2)C(=O)N[C@@H](Cc2ccc3ccccc3c2)C(=O)N[C@@](C)(CC(C)C)C(=O)N1` [Compound 21, [4-Aminomethyl-phenylacetyl](1c)*FE(2c)WQ[Dab](2c)[Y(2-aminoethoxy)][2-Nal][2-Me-Leu]E(1c)[Dab][3-(3-Pyridyl)-Ala]-[NHMe]] ([X1]FEWQ[Dab][AEF][2Nal][αMeL]E[Dab][3Pal]-NHMe; lactam 3-6, N-10): in data set [1], the share remaining at 1 h, 10 µM was 101%. Besides, the share remaining at 4 h, 10 µM in data set [1] was 101%; in data set [2], 57%. Further, the IC50 in data set [3] (setting [4]) worked out at 0.063 nM. In addition, the “hIL-23 (pSTAT3) antagonist % inhibition” value in data set [3] was 102%.
Take `CNC(=O)[C@H](Cc1cccnc1)NC(=O)[C@H](CCC(N)=O)NC(=O)[C@@H]1CCC(=O)NCc2ccc(cc2)CC(=O)N[C@@H](CO)C(=O)N[C@H]2CCC(=O)NCC[C@H](NC(=O)[C@H](CCC(N)=O)NC(=O)[C@H](Cc3c[nH]c4ccccc34)NC2=O)C(=O)N[C@@H](Cc2ccc(OCCN)cc2)C(=O)N[C@@H](Cc2ccc3ccccc3c2)C(=O)N[C@@](C)(CC(C)C)C(=O)N1` [Compound 33, [4-Aminomethyl-phenylacetyl](1c)*SE(2c)WQ[Dab](2c)[Y(2-aminoethoxy)][2-Nal][2-Me-Leu]E(1c)Q[3-(3-Pyridyl)-Ala]-[NHMe]] ([X1]SEWQ[Dab][AEF][2Nal][αMeL]EQ[3Pal]-NHMe; lactam 3-6, N-10): the fraction remaining at 1 h, 10 µM in data set [1] was 98%; in data set [2], 92%.
Turning to `CNC(=O)[C@H](Cc1cccnc1)NC(=O)[C@H](CCN)NC(=O)[C@@H]1CCC(=O)NCc2ccc(cc2)CC(=O)N[C@@H](C)C(=O)N[C@H]2CCC(=O)NCC[C@H](NC(=O)[C@H](CCC(N)=O)NC(=O)[C@H](Cc3c[nH]c4ccccc34)NC2=O)C(=O)N[C@@H](Cc2ccc(OCCN)cc2)C(=O)N[C@@H](Cc2cnc3ccccc3c2)C(=O)NC(C)(C)C(=O)N1` [Compound 49, 4-aminomethyl-phenylacetyl](1c)*AE(2c)WQ[Dab](2c)[Y(2-aminoethoxy)][3-quinolinylalanine][Aib]E(1c)[Dab][3-(3-Pyridyl)-alanyl]-[NHMe]], in data set [3] (setting [4]), the IC50 is 0.093 nM. In addition, the “hIL-23 (pSTAT3) antagonist % inhibition” value in data set [3] was 100%. In addition, in data set [2], the share remaining at 1 h, 10 µM was 93% and the fraction remaining at 4 h, 10 µM was 89%. Also, on human IL-23R, the concentration for half-maximal inhibition (IC50) was 0.023 nM and the Emax was 89%.
Turning to `CNC(=O)[C@H](Cc1cccnc1)NC(=O)[C@H](CCN)NC(=O)[C@@H]1CCC(=O)NCc2ccc(cc2)CC(=O)N[C@@H](C)C(=O)N[C@H]2CCC(=O)NCC[C@H](NC(=O)[C@H](CCC(N)=O)NC(=O)[C@H](Cc3c[nH]c4ccccc34)NC2=O)C(=O)N[C@@H](Cc2cnc3ccccc3c2)C(=O)N[C@@H](Cc2ccc3ccccc3c2)C(=O)NC(C)(C)C(=O)N1` [Compound 52, [4-aminomethyl-phenylacetyl](1c)*AE(2c)WQ[Dab](2c)[3-quinolinylalanine][2Nal][Aib]E(1c)[Dab][3-(3-Pyridyl)-alanyl]-[NHMe]], the IC50 in data set [3] (setting [4]) came out at 0.6 nM. For the same compound, the “hIL-23 (pSTAT3) antagonist % inhibition” value in data set [3] turned out to be 99%. For the same compound, in data set [2], the share remaining at 1 h, 10 µM is 92% and the amount remaining at 4 h, 10 µM was 95%. In addition, at human IL-23R, the IC50 turned out to be 0.081 nM and the Emax was determined as 102%.
For `CC(C)C[C@]1(C)NC(=O)[C@H](Cc2ccc3ccccc3c2)NC(=O)[C@H](Cc2ccc(OCCN)cc2)NC(=O)[C@@H]2CCNC(=O)CC[C@H](NC(=O)[C@H](CO)NC(=O)Cc3ccc(cc3)CNC(=O)CC[C@@H](C(=O)N[C@@H](CCN)C(=O)N[C@@H](Cc3cccnc3)C(N)=O)NC1=O)C(=O)N[C@@H](Cc1c[nH]c3ccccc13)C(=O)N[C@@H](CCC(N)=O)C(=O)N2` [Ref 122, [4-Aminomethyl-phenylacetyl](1c)*SE(2c)WQ[Dab](2c)[Y(2-aminoethoxy)][2-Nal][2-Me-Leu]E(1c)[Dab][3-(3-Pyridyl)-Ala]-[NH2], reference compound], the “hIL-23 (pSTAT3) antagonist % inhibition” value in data set [3] was 99%. In data set [2], the “SIF stability (in words)” value is reported as “not stable” and the “major metabolite formed after incubation in the SIF assay” value is listed as “the peptide without the C-terminal 3Pal (3-(3-Pyridyl)-Ala) amino acid”. The “potency of the compound (in words)” value at human IL-23R (potency against IL-23R) is “potent”. Besides, at human IL-23R, the Emax was 97%.
